Molecules are shown by their SMILES.

Sequence of androgen receptor (P15207 651-902): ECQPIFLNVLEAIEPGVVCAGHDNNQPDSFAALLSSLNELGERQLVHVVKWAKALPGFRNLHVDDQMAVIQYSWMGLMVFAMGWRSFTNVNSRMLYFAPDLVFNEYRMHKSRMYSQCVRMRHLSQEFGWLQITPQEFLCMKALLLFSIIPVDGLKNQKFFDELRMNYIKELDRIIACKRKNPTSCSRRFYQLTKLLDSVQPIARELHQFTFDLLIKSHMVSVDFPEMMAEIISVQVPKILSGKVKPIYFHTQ

In the first experiment the target is androgen receptor (Rattus norvegicus (Rat), UniProt P15207). The experiment is described as follows: androgen receptor binding assay (fluorescence polarization, Invitrogen). To be noted: AR-Fluormone complex, 4 h at room temperature; Table 1. As for the experimental part:
The assay was performed as specified by the manufacturer (Invitrogen, Madison, Wis.). Briefly, 1 μl of 10 mM compound was added to 500 μl of AR screening buffer in a 1.5 ml eppendorf tube to make a 2×10^−5M stock. 10-fold serial dilutions of the test compounds were prepared ranging in concentration from 10^−5M to 10^−12M. Each dilution was added in triplicate to a black 384-microtiter plate. The test compounds will be diluted 2-fold in the final reaction. 2×AR-Fluormone™ complex was prepared with 2 nM Flourmone AL Green™ and 30 nM AR. 25 μl of 2×complex was aliquoted to each reaction well, such that the final reaction volume was 50 μl per well. Plate was sealed with a foil cover and incubated in the dark at room temperature for 4 h. Polarization values for each well were measured. The polarization values were plotted against the concentration of the test compound. […] As a control, a competition curve for R1881 (methyltrienolone) was performed for each assay.
Broadly, the IC50 is the concentration that gives 50% inhibition. The compound `Cc1c(N2C(=O)O[C@@H](C)[C@@H]2[C@@H](O)C(F)(F)F)ccc(C#N)c1C(F)(F)F` [Example 24, 3-methyl-4-((4S,5S)-5-methyl-2-oxo-4-((R)-2,2,2-trifluoro-1-hydroxyethyl)oxazolidin-3-yl)-2-(trifluoromethyl)benzonitrile] registered an IC50 of more than 1000 nM.

Compound `C[C@@H]1OC(=O)N(c2ccc(C#N)c(Cl)c2)[C@H]1[C@@H](O)C(F)(F)F` [Example 22, 2-Chloro-4-((4S,5S)-5-methyl-2-oxo-4-((R)-2,2,2-trifluoro-1-hydroxyethyl)oxazolidin-3-yl)benzonitrile] returned a half-inhibitory concentration (IC50) of 210 nM.

`Cc1c(N2C(=O)O[C@@H](C)[C@@H]2[C@@H](O)C(F)(F)F)ccc(C#N)c1Cl` [Example 18, 2-chloro-3-methyl-4-((4S,5S)-5-methyl-2-oxo-4-((R)-2,2,2-trifluoro-1-hydroxyethyl)oxazolidin-3-yl)benzonitrile] yielded an IC50 of 700 nM.

Compound `Cc1c(N2C(=O)CC[C@@H]2[C@H](O)C(F)(F)F)ccc(C#N)c1C(F)(F)F` [Example 3, 3-methyl-4-((R)-2-oxo-5-((S)-2,2,2-trifluoro-1-hydroxyethyl)pyrrolidin-1-yl)-2-(trifluoromethyl)benzonitrile] yielded an IC50 of 11 nM.

`Cc1c(N2C(=O)OC[C@@H]2[C@H](O)C(F)(F)F)ccc(C#N)c1C(F)(F)F` [Example 13, 3-methyl-4-((R)-2-oxo-4-((S)-2,2,2-trifluoro-1-hydroxyethyl)oxazolidin-3-yl)-2-(trifluoromethyl)benzonitrile] had an IC50 of 13 nM.

As for `O=C1CC[C@H]([C@@H](O)C(F)(F)F)N1c1ccc2nnsc2c1` [Example 6, (R)-1-(Benzo[d][1,2,3]thiadiazol-6-yl)-5-((R)-2,2,2-trifluoro-1-hydroxyethyl)pyrrolidin-2-one], the “Binding IC50 (nM)” value is recorded as “No binding”.

Regarding `Cc1c(N2C(=O)O[C@H](C)[C@@H]2[C@H](O)C(F)(F)F)ccc(C#N)c1Cl` [Example 15, 2-chloro-3-methyl-4-((4S,5R)-5-methyl-2-oxo-4-((S)-2,2,2-trifluoro-1-hydroxyethyl)oxazolidin-3-yl)benzonitrile], the IC50 is 200 nM.

For `Cc1c(N2C(=O)OC[C@@H]2[C@@H](O)C(F)(F)F)ccc(C#N)c1Cl` [Example 12, 2-chloro-3-methyl-4-((R)-2-oxo-4-((R)-2,2,2-trifluoro-1-hydroxyethyl)oxazolidin-3-yl)benzonitrile], the 50% inhibitory concentration (IC50) stood at 933 nM.

For `O=C1CC[C@H]([C@H](O)C(F)(F)F)N1c1ccc2nnsc2c1` [Example 5, (R)-1-(Benzo[d][1,2,3]thiadiazol-6-yl)-5-((S)-2,2,2-trifluoro-1-hydroxyethyl)pyrrolidin-2-one], the half-maximal inhibitory concentration (IC50) is 530 nM.

Regarding `N#Cc1ccc(N2C(=O)OC[C@H]2[C@@H](O)C(F)(F)F)cc1Cl` [Example 10, 2-chloro-4-((S)-2-oxo-4-((R)-2,2,2-trifluoro-1-hydroxyethyl)oxazolidin-3-yl)benzonitrile], the IC50 is more than 1000 nM.

In the case of `Cc1c(N2C(=O)O[C@H](C)[C@@H]2[C@@H](O)C(F)(F)F)ccc(C#N)c1Cl` [Example 16, 2-chloro-3-methyl-4-((4S,5R)-5-methyl-2-oxo-4-((R)-2,2,2-trifluoro-1-hydroxyethyl)oxazolidin-3-yl)benzonitrile], the concentration for half-maximal inhibition (IC50) was more than 1000 nM.

`Cc1c(N2C(=O)O[C@@H](C)[C@@H]2[C@H](O)C(F)(F)F)ccc(C#N)c1C(F)(F)F` [Example 23, 3-methyl-4-((4S,5S)-5-methyl-2-oxo-4-((S)-2,2,2-trifluoro-1-hydroxyethyl)oxazolidin-3-yl)-2-(trifluoromethyl)benzonitrile] showed an IC50 of 33 nM.

Take `Cc1c(N2C(=O)CC[C@@H]2[C@@H](O)C(F)(F)F)ccc(C#N)c1C(F)(F)F` [Example 4, 3-methyl-4-((R)-2-oxo-5-((R)-2,2,2-trifluoro-1-hydroxyethyl)pyrrolidin-1-yl)-2-(trifluoromethyl)benzonitrile]: the IC50 came to 120 nM.

As to `N#Cc1ccc(N2C(=O)OC[C@@H]2[C@@H](O)C(F)(F)F)cc1C(F)(F)F` [Example 8, 4-((R)-2-oxo-4-((R)-2,2,2-trifluoro-1-hydroxyethyl)oxazolidin-3-yl)-2-(trifluoromethyl)benzonitrile], the 50% inhibitory concentration (IC50) is more than 1000 nM.

With `N#Cc1ccc(N2C(=O)CC[C@@H]2[C@@H](O)C(F)(F)F)cc1C(F)(F)F` [Example 2, 4-((R)-2-oxo-5-((R)-2,2,2-trifluoro-1-hydroxyethyl)pyrrolidin-1-yl)-2-(trifluoromethyl)benzonitrile], the half-maximal inhibitory concentration (IC50) is 100 nM.

The same experiment, now with this note: AR-Fluormone complex, 4 h at room temperature; Table 2.
`C[C@H]1OC(=O)N(c2ccc(C#N)c(C(F)(F)F)c2)[C@H]1[C@@H](O)C(F)(F)F` [Example 37, 4-((4S,5R)-4-((R)-2,2,2-trifluoro-1-hydroxyethyl)-5-methyl-2-oxooxazolidin-3-yl)-2-(trifluoromethyl)benzonitrile] gave an IC50 of more than 1000 nM.

For the compound `Cc1c(N2C(=O)O[C@H](C)[C@@H]2[C@H](O)C(F)(F)F)ccc(C#N)c1C(F)(F)F` [Example 34, 4-((4S,5R)-4-((S)-2,2,2-trifluoro-1-hydroxyethyl)-5-methyl-2-oxooxazolidin-3-yl)-2-(trifluoromethyl)-3-methylbenzonitrile], the IC50 was more than 1000 nM.

As to `Cc1c(N2C(=O)CC[C@@H]2[C@H](O)C(F)(F)F)ccc(C#N)c1Cl` [Example 29, 2-chloro-4-((R)-2-((S)-2,2,2-trifluoro-1-hydroxyethyl)-5-oxopyrrolidin-1-yl)-3-methylbenzonitrile], the IC50 came out at 25 nM.

`C[C@H]1OC(=O)N(c2ccc(C#N)c(Cl)c2)[C@H]1[C@H](O)C(F)(F)F` [Example 38, 2-chloro-4-((4S,5R)-4-((S)-2,2,2-trifluoro-1-hydroxyethyl)-5-methyl-2-oxooxazolidin-3-yl)benzonitrile] came in with an IC50 of 150 nM.

In turn, `N#Cc1ccc(N2C(=O)CC[C@@H]2[C@@H](O)C(F)(F)F)cc1Cl` [Example 33, 2-chloro-4-((R)-2-((R)-2,2,2-trifluoro-1-hydroxyethyl)-5-oxopyrrolidin-1-yl)benzonitrile] came in with a 50% inhibitory concentration (IC50) of 65 nM.

In turn, `Cc1c(N2C(=O)O[C@H](C)[C@@H]2[C@@H](O)C(F)(F)F)ccc(C#N)c1C(F)(F)F` [Example 35, 4-((4S,5R)-4-((R)-2,2,2-trifluoro-1-hydroxyethyl)-5-methyl-2-oxooxazolidin-3-yl)-2-(trifluoromethyl)-3-methylbenzonitrile] displayed an IC50 of more than 10000 nM.

The compound `O=C1CC[C@H]([C@@H](O)C(F)(F)F)N1c1ccc(Cl)c(Cl)c1` [Example 28, (R)-1-(3,4-dichlorophenyl)-5-((R)-2,2,2-trifluoro-1-hydroxyethyl)pyrrolidin-2-one] yielded an IC50 of more than 1000 nM.

Compound `C[C@H]1OC(=O)N(c2ccc(C#N)c(Cl)c2)[C@H]1[C@@H](O)C(F)(F)F` [Example 39, 2-chloro-4-((4S,5R)-4-((R)-2,2,2-trifluoro-1-hydroxyethyl)-5-methyl-2-oxooxazolidin-3-yl)benzonitrile] had an IC50 of 550 nM.

For the compound `C[C@H]1OC(=O)N(c2ccc(C#N)c(C(F)(F)F)c2)[C@H]1[C@H](O)C(F)(F)F` [Example 36, 4-((4S,5R)-4-((S)-2,2,2-trifluoro-1-hydroxyethyl)-5-methyl-2-oxooxazolidin-3-yl)-2-(trifluoromethyl)benzonitrile], the IC50 is more than 1000 nM.

The next experiment concerns immature, castrated rat (levator ani and bulba cavernous, LABC). The experiment is described as follows: In vivo rat Herschberger assay, LABC weight. Details: key: no = no activity observed at highest dose tested.; yes = increased LABC weight relative to castrated vehicle control. To be noted: once daily oral gavage for 4 days, Table 2. An excerpt: In Vivo Rat Model of Androgen and Anabolic Activity-Rat Herschberger Assay
The following is a typical procedure of the in vivo evaluation of the selective androgens of this invention. In particular, this assay looks primarily at the ability of the selective androgens of this invention to increase muscle size in an immature, castrated rat. In addition, androgenic effects are looked at primarily by weighing the prostate and seminal vesicles. Selective compounds will show a greater increase in the levator ani relative to the prostate and seminal vesicles when compared to testosterone treated, castrated animals or to intact animals that have not been treated. Immature Sprague Dawley male rats were obtained Charles River Laboratories (Stoneridge, N.Y.). All animals were maintained in a temperature and humidity controlled room with a 12 hr light: 12 hr dark cycle, with ad lib access to food (TD 291615, Teklad, Madison, Wis.) and water. Rats were anesthetized and orchidectomized (GDX) or sham surgery (SHAM) was performed. After a 7-day recovery period, the animals were randomized according to weight and assigned to treatment groups (n=5), SHAM, OVX+vehicle, OVX+Cpd treated. Testosterone propionate (TP 1 mg/kg in 5% DMSO/95% corn oil) was administered by once daily subcutaneous injections, while the compounds of the invention are dosed in vehicle (0.5% carboxymethylcellulose) was administered by once daily oral gavage. The rats were then dosed once daily for 4 days. All animals were euthanized via carbon dioxide inhalation 24 hs after the last dose. The prostate, seminal vesicle and levator ani and bulba cavernous (LABC) tissues were removed, weighed and recorded. An increase in mean LABC indicates anabolic activity for that particular compound with regard to oral dosing typically at a maximum tested dose of between 1 mg/kg and 30 mg/kg—see Table 1.
As to `Cc1c(N2C(=O)CC[C@@H]2[C@H](O)C(F)(F)F)ccc(C#N)c1Cl` [Example 29, 2-chloro-4-((R)-2-((S)-2,2,2-trifluoro-1-hydroxyethyl)-5-oxopyrrolidin-1-yl)-3-methylbenzonitrile], the “Oral activity in Herscheberger assay on LABC weight” value (“Oral activity” for short) is reported as “yes”.

Still in this experiment, the particulars now being: once daily oral gavage for 4 days, maximum tested dose between 1 mg/kg and 30 mg/kg, Table 1.
As to `C[C@@H]1OC(=O)N(c2ccc(C#N)c(C(F)(F)F)c2)[C@H]1[C@@H](O)C(F)(F)F` [Example 20, 4-((4S,5S)-5-methyl-2-oxo-4-((R)-2,2,2-trifluoro-1-hydroxyethyl)oxazolidin-3-yl)-2-(trifluoromethyl)benzonitrile], the “Oral activity” value was “yes”.

For the compound `C[C@@H]1OC(=O)N(c2ccc(C#N)c(Cl)c2)[C@H]1[C@@H](O)C(F)(F)F` [Example 22, 2-Chloro-4-((4S,5S)-5-methyl-2-oxo-4-((R)-2,2,2-trifluoro-1-hydroxyethyl)oxazolidin-3-yl)benzonitrile], the “Oral activity” value was “yes”.

Regarding `C[C@@H]1OC(=O)N(c2ccc(C#N)c(C(F)(F)F)c2)[C@H]1[C@H](O)C(F)(F)F` [Example 19, 4-((4S,5S)-5-methyl-2-oxo-4-((S)-2,2,2-trifluoro-1-hydroxyethyl)oxazolidin-3-yl)-2-(trifluoromethyl)benzonitrile], the “Oral activity” value is listed as “yes”.

With `Cc1c(N2C(=O)CC[C@@H]2[C@H](O)C(F)(F)F)ccc(C#N)c1C(F)(F)F` [Example 3, 3-methyl-4-((R)-2-oxo-5-((S)-2,2,2-trifluoro-1-hydroxyethyl)pyrrolidin-1-yl)-2-(trifluoromethyl)benzonitrile], the “Oral activity” value is “yes”.

Regarding `Cc1c(N2C(=O)OC[C@@H]2[C@H](O)C(F)(F)F)ccc(C#N)c1C(F)(F)F` [Example 13, 3-methyl-4-((R)-2-oxo-4-((S)-2,2,2-trifluoro-1-hydroxyethyl)oxazolidin-3-yl)-2-(trifluoromethyl)benzonitrile], the “Oral activity” value is listed as “yes”.
